Molecular target: T1, ΔF508-CFTR (Homo sapiens, UniProt P13569, DEL508-508)
T1 construct: expressed in transfected cells
Experiment: Membrane potential optical assay of ΔF508-CFTR modulation (Table 3 EC50; the table does not name the assay)
Assay type: cell-based
Source text: Membrane Potential Optical Methods for Assaying ΔF508-CFTR Modulation Properties of Compounds
The optical membrane potential assay utilized voltage-sensitive FRET sensors described by Gonzalez and Tsien (See, Gonzalez, J. E. and R. Y. Tsien (1995) “Voltage sensing by fluorescence resonance energy transfer in single cells” Biophys J 69(4): 1272-80, and Gonzalez, J. E. and R. Y. Tsien (1997) “Improved indicators of cell membrane potential that use fluorescence resonance energy transfer” Chem Biol 4(4): 269-77) in combination with instrumentation for measuring fluorescence changes such as the Voltage/Ion Probe Reader (VIPR) (See, Gonzalez, J. E., K. Oades, et al. (1999) “Cell-based assays and instrumentation for screening ion-channel targets” Drug Discov Today 4(9): 431-439).
These voltage sensitive assays are based on the change in fluorescence resonant energy transfer (FRET) between the membrane-soluble, voltage-sensitive dye, DiSBAC2(3), and a fluorescent phospholipid, CC2-DMPE, which is attached to the outer leaflet of the plasma membrane and acts as a FRET donor. Changes in membrane potential (Vm) cause the negatively charged DiSBAC2(3) to redistribute across the plasma membrane and the amount of energy transfer from CC2-DMPE changes accordingly. The changes in fluorescence emission were monitored using VIPR II, which is an integrated liquid handler and fluorescent detector designed to conduct cell-based screens in 96- or 384-well microtiter plates.
Identification of Correction Compounds
To identify small molecules that correct the trafficking defect associated with ΔF508-CFTR; a single-addition HTS assay format was developed. The cells were incubated in serum-free medium for 16 hrs at 37° C. in the presence or absence (negative control) of test compound. As a positive control, cells plated in 384-well plates were incubated for 16 hrs at 27° C. to “temperature-correct” ΔF508-CFTR. The cells were subsequently rinsed 3× with Krebs Ringers solution and loaded with the voltage-sensitive dyes. To activate ΔF508-CFTR, 10 μM forskolin and the CFTR potentiator, genistein (20 μM), were added along with Cl^−-free medium to each well. The addition of Cl^−-free medium promoted Cl^− efflux in response to ΔF508-CFTR activation and the resulting membrane depolarization was optically monitored using the FRET-based voltage-sensor dyes.
Identification of Potentiator Compounds
To identify potentiators of ΔF508-CFTR, a double-addition HTS assay format was developed. During the first addition, a Cl^−-free medium with or without test compound was added to each well. After 22 sec, a second addition of Cl^−-free medium containing 2-10 μM forskolin was added to activate ΔF508-CFTR. The extracellular Cl^− concentration following both additions was 28 mM, which promoted Cl^− efflux in response to ΔF508-CFTR activation and the resulting membrane depolarization was optically monitored using the FRET-based voltage-sensor dyes. Solutions
NIH3T3 mouse fibroblasts stably expressing ΔF508-CFTR are used for optical measurements of membrane potential. The cells are maintained at 37° C. in 5% CO2 and 90% humidity in Dulbecco's modified Eagle's medium supplemented with 2 mM glutamine, 10% fetal bovine serum, 1×NEAA, […]-ME, 1× pen/strep, and 25 mM HEPES in 175 cm^2 culture flasks. For all optical assays, the cells were seeded at 30,000/well in 384-well matrigel-coated plates and cultured for 2 hrs at 37° C. before culturing at 27° C. for 24 hrs. for the potentiator assay. For the correction assays, the cells are cultured at 27° C. or 37° C. with and without compounds for 16-24 hours

T1 sequence (P13569 with tags, fused parts or gaps DEL508-508): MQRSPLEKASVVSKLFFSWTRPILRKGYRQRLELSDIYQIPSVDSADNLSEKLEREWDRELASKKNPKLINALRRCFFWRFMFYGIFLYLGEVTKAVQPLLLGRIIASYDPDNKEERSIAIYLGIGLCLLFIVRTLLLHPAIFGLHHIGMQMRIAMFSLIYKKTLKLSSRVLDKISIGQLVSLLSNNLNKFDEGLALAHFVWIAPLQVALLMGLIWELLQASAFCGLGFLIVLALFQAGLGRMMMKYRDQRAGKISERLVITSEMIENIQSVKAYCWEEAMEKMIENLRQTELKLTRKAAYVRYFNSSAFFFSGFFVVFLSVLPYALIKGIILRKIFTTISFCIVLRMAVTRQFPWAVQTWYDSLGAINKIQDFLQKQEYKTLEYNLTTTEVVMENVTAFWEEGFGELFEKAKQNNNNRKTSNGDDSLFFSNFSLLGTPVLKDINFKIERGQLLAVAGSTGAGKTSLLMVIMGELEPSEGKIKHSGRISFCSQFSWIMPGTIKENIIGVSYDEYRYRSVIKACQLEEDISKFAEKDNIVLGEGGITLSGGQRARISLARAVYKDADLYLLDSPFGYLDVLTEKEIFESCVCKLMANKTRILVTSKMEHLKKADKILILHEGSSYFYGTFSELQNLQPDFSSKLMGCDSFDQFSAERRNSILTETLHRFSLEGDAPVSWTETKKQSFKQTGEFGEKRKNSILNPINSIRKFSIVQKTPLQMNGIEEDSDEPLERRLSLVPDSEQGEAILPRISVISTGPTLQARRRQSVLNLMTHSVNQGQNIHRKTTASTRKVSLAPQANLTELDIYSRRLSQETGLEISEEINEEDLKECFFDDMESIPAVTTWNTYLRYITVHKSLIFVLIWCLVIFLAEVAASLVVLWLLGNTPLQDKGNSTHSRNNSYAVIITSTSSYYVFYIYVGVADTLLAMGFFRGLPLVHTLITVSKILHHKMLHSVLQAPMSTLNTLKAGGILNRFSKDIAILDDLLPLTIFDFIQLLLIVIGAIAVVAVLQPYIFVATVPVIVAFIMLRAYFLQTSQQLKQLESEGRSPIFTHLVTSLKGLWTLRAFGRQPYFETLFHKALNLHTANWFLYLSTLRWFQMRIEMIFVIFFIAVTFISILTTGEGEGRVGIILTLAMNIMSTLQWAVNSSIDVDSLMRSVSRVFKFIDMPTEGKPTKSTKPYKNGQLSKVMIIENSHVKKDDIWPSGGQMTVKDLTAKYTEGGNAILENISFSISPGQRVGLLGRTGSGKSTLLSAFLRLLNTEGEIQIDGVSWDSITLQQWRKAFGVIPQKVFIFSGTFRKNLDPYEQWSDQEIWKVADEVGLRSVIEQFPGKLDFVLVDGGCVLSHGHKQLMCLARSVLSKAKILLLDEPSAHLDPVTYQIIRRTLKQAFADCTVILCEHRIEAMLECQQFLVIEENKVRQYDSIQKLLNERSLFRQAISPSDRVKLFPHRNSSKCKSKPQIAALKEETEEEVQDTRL

SMILES | EC50 [nM]
Cn1cc(C(=O)C(=O)NCCc2ccccc2)c2ccccc21 [Compound 10, 2-(1-Methyl-1H-indol-3-yl)-2-oxo-N-phenethyl-acetamide] | > 5000
Cn1cc(C(=O)C(=O)NCc2ccccc2)c2ccccc21 [Compound 9] | > 5000
O=C(NC(CSCc1ccccc1)CSCc1ccccc1)C(=O)c1c[nH]c2ccccc12 [Compound 17] | 1000 to 5000
O=C(NC(CN1CCOCC1)c1ccccc1)C(=O)c1c[nH]c2ccccc12 (centres unmarked) [Compound 4] | > 5000
COc1ccccc1N1CCN(C(=O)C(=O)c2c[nH]c3ccc(Br)cc23)CC1 [Compound 7] | 1000 to 5000
O=C(NCc1ccccc1)C(=O)c1c[nH]c2ccccc12 [Compound 6] | < 1000
O=C(NCCc1ccccc1)C(=O)c1c[nH]c2ccccc12 [Compound 2, 2-(1H-Indol-3-yl)-2-oxo-N-phenethyl-acetamide] | < 1000
O=C(NC(c1ccccc1)c1ccccc1)C(=O)c1c[nH]c2ccccc12 [Compound 1, N-Benzhydryl-2-(1H-indol-3-yl)-2-oxo-acetamide] | < 1000
O=C(NCCc1ccccc1)C(=O)c1c[nH]c2ccc(Br)cc12 [Compound 16] | < 1000

Next, values leading:

EC50 [nM] | SMILES
> 5000 | Cn1cc(C(=O)C(=O)NC(c2ccccc2)c2ccccc2)c2ccccc21 [Compound 12, N-Benzhydryl-2-(1-methyl-1H-indol-3-yl)-2-oxo-acetamide]
< 1000 | O=C(C(=O)N(Cc1ccccc1)Cc1ccccc1)c1c[nH]c2ccccc12 [Compound 5, N,N-Dibenzyl-2-(1H-indol-3-yl)-2-oxo-acetamide]
1000 to 5000 | COc1ccc(CCNC(=O)C(=O)c2c[nH]c3ccc(Br)cc23)cc1 [Compound 13]
< 1000 | Cc1ccc(Cn2cc(SCCNC(=O)C(=O)c3c[nH]c4ccccc34)c3ccccc32)cc1 [Compound 3]
1000 to 5000 | Cn1cc(C(=O)C(=O)N(Cc2ccccc2)Cc2ccccc2)c2ccccc21 [Compound 15, N,N-Dibenzyl-2-(1-methyl-1H-indol-3-yl)-2-oxo-acetamide]
> 5000 | CN(Cc1ccccc1)C(=O)C(=O)c1c[nH]c2ccccc12 [Compound 14, N-Benzyl-2-(1H-indol-3-yl)-N-methyl-2-oxo-acetamide]
1000 to 5000 | CC(=O)Nc1ccc(OCCCNC(=O)C(=O)c2c[nH]c3ccc(Br)cc23)cc1 [Compound 8]
< 1000 | O=C(NCC(c1ccccc1)c1ccccc1)C(=O)c1c[nH]c2ccccc12 [Compound 18, N-(2,2-Diphenylethyl)-2-(1H-indol-3-yl)-2-oxo-acetamide]

Source: patent publication US8314256B2, “Modulators of ATP-binding cassette transporters” (Vertex Pharmaceuticals Incorporated, priority 2005, dated 2012)
